Assay results from PubChem BioAssay (NCI).
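Cultured in 96-well plates, cells were exposed to test compound for 48 hours across five concentrations. TGI denotes the concentration required for complete inhibition of growth.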

What was measured:
Assay in all cases: NCI-60 cell line screen, 48 h
LXFL 529 NSCLC = system: LXFL 529 NSCLC
SK-MEL-5 melanoma = system: SK-MEL-5 melanoma
EKVX NSCLC = system: EKVX NSCLC
UACC-62 melanoma = system: UACC-62 melanoma
CCRF-CEM leukemia = system: CCRF-CEM leukemia
SNB-78 CNS = system: SNB-78 CNS
RXF 393 renal = system: RXF 393 renal
TK-10 renal = system: TK-10 renal
786-0 renal = system: 786-0 renal
COLO 205 colon = system: COLO 205 colon
U251 CNS = system: U251 CNS
HL-60(TB) leukemia = system: HL-60(TB) leukemia
OVCAR-4 ovarian = system: OVCAR-4 ovarian
XF 498 CNS = system: XF 498 CNS
KM12 colon = system: KM12 colon
A549 NSCLC = system: A549 NSCLC
SK-MEL-2 melanoma = system: SK-MEL-2 melanoma
NCI-H522 lung = system: NCI-H522 lung
HOP-62 NSCLC = system: HOP-62 NSCLC
MALME-3M melanoma = system: MALME-3M melanoma
HT29 colon = system: HT29 colon
RPMI-8226 leukemia = system: RPMI-8226 leukemia
UO-31 renal = system: UO-31 renal
DMS 114 small cell lung = system: DMS 114 small cell lung
NCI-H460 lung = system: NCI-H460 lung
SNB-19 CNS = system: SNB-19 CNS
KM20L2 colon = system: KM20L2 colon
HCT-116 colon = system: HCT-116 colon
SK-MEL-28 melanoma = system: SK-MEL-28 melanoma
MOLT-4 leukemia = system: MOLT-4 leukemia
ACHN renal = system: ACHN renal
SR leukemia = system: SR leukemia
HCC-2998 colon = system: HCC-2998 colon
SW-620 colon = system: SW-620 colon
K-562 leukemia = system: K-562 leukemia
SF-539 CNS = system: SF-539 CNS
DMS 273 small cell lung = system: DMS 273 small cell lung
SN12C renal = system: SN12C renal
OVCAR-8 ovarian = system: OVCAR-8 ovarian
IGROV1 ovarian = system: IGROV1 ovarian
M14 melanoma = system: M14 melanoma
OVCAR-3 ovarian = system: OVCAR-3 ovarian
NCI-H23 lung = system: NCI-H23 lung
OVCAR-5 ovarian = system: OVCAR-5 ovarian
SNB-75 CNS = system: SNB-75 CNS
SF-268 CNS = system: SF-268 CNS
M19-MEL melanoma = system: M19-MEL melanoma
HCT-15 colon = system: HCT-15 colon
SF-295 CNS = system: SF-295 CNS
LOX IMVI melanoma = system: LOX IMVI melanoma
RXF-631 renal = system: RXF-631 renal
SK-OV-3 ovarian = system: SK-OV-3 ovarian
HOP-18 NSCLC = system: HOP-18 NSCLC
UACC-257 melanoma = system: UACC-257 melanoma
HOP-92 NSCLC = system: HOP-92 NSCLC
NCI-H226 lung = system: NCI-H226 lung
CAKI-1 renal = system: CAKI-1 renal
DLD-1 colon = system: DLD-1 colon
A498 renal = system: A498 renal

## O=C1CCC(=O)N1Cc1ccccc1N=[N+]([O-])c1ccccc1CN1C(=O)CCC1=O
LXFL 529 NSCLC
  TGI: > 100 µM
SK-MEL-5 melanoma
  TGI: > 100 µM
EKVX NSCLC
  TGI: > 100 µM
UACC-62 melanoma
  TGI: > 100 µM
CCRF-CEM leukemia
  TGI: > 100 µM
SNB-78 CNS
  TGI: > 100 µM
RXF 393 renal
  TGI: > 100 µM
TK-10 renal
  TGI: > 100 µM
786-0 renal
  TGI: > 100 µM
COLO 205 colon
  TGI: > 100 µM
U251 CNS
  TGI: > 100 µM
HL-60(TB) leukemia
  TGI: > 100 µM
OVCAR-4 ovarian
  TGI: > 100 µM
XF 498 CNS
  TGI: > 100 µM
KM12 colon
  TGI: > 100 µM
A549 NSCLC
  TGI: > 100 µM
SK-MEL-2 melanoma
  TGI: > 100 µM
NCI-H522 lung
  TGI: > 100 µM
HOP-62 NSCLC
  TGI: > 100 µM
MALME-3M melanoma
  TGI: > 100 µM
HT29 colon
  TGI: > 100 µM
RPMI-8226 leukemia
  TGI: > 100 µM
UO-31 renal
  TGI: > 100 µM
DMS 114 small cell lung
  TGI: > 100 µM
NCI-H460 lung
  TGI: > 100 µM
SNB-19 CNS
  TGI: > 100 µM
KM20L2 colon
  TGI: > 100 µM
HCT-116 colon
  TGI: > 100 µM
SK-MEL-28 melanoma
  TGI: > 100 µM
MOLT-4 leukemia
  TGI: > 100 µM
ACHN renal
  TGI: > 100 µM
SR leukemia
  TGI: > 100 µM
HCC-2998 colon
  TGI: > 100 µM
SW-620 colon
  TGI: > 100 µM
K-562 leukemia
  TGI: > 100 µM
SF-539 CNS
  TGI: > 100 µM
DMS 273 small cell lung
  TGI: > 100 µM
SN12C renal
  TGI: > 100 µM
OVCAR-8 ovarian
  TGI: > 100 µM
IGROV1 ovarian
  TGI: > 100 µM
M14 melanoma
  TGI: > 100 µM
OVCAR-3 ovarian
  TGI: > 100 µM
NCI-H23 lung
  TGI: > 100 µM
OVCAR-5 ovarian
  TGI: > 100 µM
SNB-75 CNS
  TGI: 65.6 µM
SF-268 CNS
  TGI: > 100 µM
M19-MEL melanoma
  TGI: > 100 µM
HCT-15 colon
  TGI: > 100 µM
SF-295 CNS
  TGI: > 100 µM
LOX IMVI melanoma
  TGI: > 100 µM

## Cc1cc2nc(CCC(=O)O)c(=O)[nH]c2cc1C
LXFL 529 NSCLC
  TGI: > 100 µM
RXF-631 renal
  TGI: > 100 µM
SK-MEL-5 melanoma
  TGI: > 100 µM
SK-OV-3 ovarian
  TGI: > 100 µM
EKVX NSCLC
  TGI: > 100 µM
UACC-62 melanoma
  TGI: > 100 µM
CCRF-CEM leukemia
  TGI: > 100 µM
HOP-18 NSCLC
  TGI: > 100 µM
SNB-78 CNS
  TGI: > 100 µM
RXF 393 renal
  TGI: > 100 µM
TK-10 renal
  TGI: > 100 µM
786-0 renal
  TGI: > 100 µM
COLO 205 colon
  TGI: > 100 µM
U251 CNS
  TGI: > 100 µM
HL-60(TB) leukemia
  TGI: > 100 µM
OVCAR-4 ovarian
  TGI: > 100 µM
XF 498 CNS
  TGI: > 100 µM
KM12 colon
  TGI: > 100 µM
A549 NSCLC
  TGI: > 100 µM
UACC-257 melanoma
  TGI: > 100 µM
SK-MEL-2 melanoma
  TGI: > 100 µM
NCI-H522 lung
  TGI: > 100 µM
HOP-62 NSCLC
  TGI: > 100 µM
MALME-3M melanoma
  TGI: > 100 µM
HOP-92 NSCLC
  TGI: > 100 µM
HT29 colon
  TGI: > 100 µM
RPMI-8226 leukemia
  TGI: > 100 µM
UO-31 renal
  TGI: > 100 µM
DMS 114 small cell lung
  TGI: > 100 µM
NCI-H460 lung
  TGI: > 100 µM
NCI-H226 lung
  TGI: > 100 µM
SNB-19 CNS
  TGI: > 100 µM
KM20L2 colon
  TGI: > 100 µM
HCT-116 colon
  TGI: > 100 µM
SK-MEL-28 melanoma
  TGI: > 100 µM
MOLT-4 leukemia
  TGI: > 100 µM
ACHN renal
  TGI: > 100 µM
SR leukemia
  TGI: > 100 µM
HCC-2998 colon
  TGI: > 100 µM
CAKI-1 renal
  TGI: > 100 µM
K-562 leukemia
  TGI: > 100 µM
SF-539 CNS
  TGI: > 100 µM
DLD-1 colon
  TGI: > 100 µM
A498 renal
  TGI: > 100 µM
SN12C renal
  TGI: > 100 µM
OVCAR-8 ovarian
  TGI: > 100 µM
IGROV1 ovarian
  TGI: > 100 µM
M14 melanoma
  TGI: > 100 µM
OVCAR-3 ovarian
  TGI: > 100 µM
NCI-H23 lung
  TGI: > 100 µM
OVCAR-5 ovarian
  TGI: > 100 µM
SNB-75 CNS
  TGI: > 100 µM
SF-268 CNS
  TGI: > 100 µM
M19-MEL melanoma
  TGI: > 100 µM
HCT-15 colon
  TGI: > 100 µM
SF-295 CNS
  TGI: > 100 µM
LOX IMVI melanoma
  TGI: > 100 µM

## CC1(c2cccc3ccccc23)OC(=O)c2ccccc21 (centres undefined)
LXFL 529 NSCLC
  TGI: > 100 µM
RXF-631 renal
  TGI: 70.7 µM
SK-MEL-5 melanoma
  TGI: 26.2 µM
SK-OV-3 ovarian
  TGI: 75.8 µM
EKVX NSCLC
  TGI: > 100 µM
UACC-62 melanoma
  TGI: 25.6 µM
CCRF-CEM leukemia
  TGI: 52.3 µM
SNB-78 CNS
  TGI: > 100 µM
RXF 393 renal
  TGI: 46.1 µM
TK-10 renal
  TGI: > 100 µM
786-0 renal
  TGI: 71.3 µM
COLO 205 colon
  TGI: 29.8 µM
U251 CNS
  TGI: 45.7 µM
HL-60(TB) leukemia
  TGI: 43.4 µM
OVCAR-4 ovarian
  TGI: > 100 µM
XF 498 CNS
  TGI: 45.2 µM
KM12 colon
  TGI: > 100 µM
A549 NSCLC
  TGI: 49.7 µM
UACC-257 melanoma
  TGI: 54.5 µM
SK-MEL-2 melanoma
  TGI: 62.6 µM
NCI-H522 lung
  TGI: 61.4 µM
HOP-62 NSCLC
  TGI: 41.6 µM
MALME-3M melanoma
  TGI: 53.4 µM
HOP-92 NSCLC
  TGI: 36.5 µM
HT29 colon
  TGI: 53.8 µM
RPMI-8226 leukemia
  TGI: 77.6 µM
UO-31 renal
  TGI: 78.7 µM
DMS 114 small cell lung
  TGI: 38 µM
NCI-H460 lung
  TGI: 52.8 µM
NCI-H226 lung
  TGI: 48.3 µM
SNB-19 CNS
  TGI: > 100 µM
KM20L2 colon
  TGI: 35.7 µM
HCT-116 colon
  TGI: 34.6 µM
SK-MEL-28 melanoma
  TGI: 75.8 µM
MOLT-4 leukemia
  TGI: 55.6 µM
ACHN renal
  TGI: 70.9 µM
HCC-2998 colon
  TGI: 35.6 µM
CAKI-1 renal
  TGI: 51 µM
SW-620 colon
  TGI: 68.2 µM
K-562 leukemia
  TGI: 65.8 µM
SF-539 CNS
  TGI: 30.2 µM
DMS 273 small cell lung
  TGI: 28.6 µM
DLD-1 colon
  TGI: 75.2 µM
A498 renal
  TGI: 68.3 µM
SN12C renal
  TGI: 67.8 µM
OVCAR-8 ovarian
  TGI: > 100 µM
IGROV1 ovarian
  TGI: 55.3 µM
M14 melanoma
  TGI: 37.2 µM
OVCAR-3 ovarian
  TGI: 58.1 µM
NCI-H23 lung
  TGI: 38.1 µM
OVCAR-5 ovarian
  TGI: > 100 µM
SNB-75 CNS
  TGI: 46 µM
SF-268 CNS
  TGI: 93 µM
M19-MEL melanoma
  TGI: 51.3 µM
HCT-15 colon
  TGI: 63.7 µM
SF-295 CNS
  TGI: 54.5 µM
LOX IMVI melanoma
  TGI: 42.8 µM
